Results taken from PubChem BioAssay AID200 (DTP/NCI, 2004).
Where “and” joins values, the source holds several entries; their conditions need not be identical. Equal values may be shown once. Toxic doses and inconclusive results are not listed.

Test system: B6C3F1 mice, B16 melanoma ip, median survival T/C
Experiment: NCI In Vivo Anticancer Drug Screen. Data for tumor model B16 Melanoma (intraperitoneal) in B6C3F1 mice
Details: endpoint: median survival time, higher = longer survival
Summary of the method: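 Tumor-bearing mice received test compound; a separate group got vehicle only. Survival was then compared, with results reported as treated over control.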

[1] = dose: 50.0 mg/kg/injection, schedule: Q01DX009 (ip), vehicle: saline with Tween-80
[2] = dose: 100.0 mg/kg/injection, schedule: Q01DX009 (ip), vehicle: saline with Tween-80
[3] = dose: 200.0 mg/kg/injection, schedule: Q01DX009 (ip), vehicle: saline with Tween-80
[4] = dose: 400.0 mg/kg/injection, schedule: Q01DX009 (ip), vehicle: saline with Tween-80
[5] = dose: 6.25 mg/kg/injection, schedule: Q01DX009 (ip), vehicle: Klucel (hydroxypropylcellulose) (HPC)
[6] = dose: 12.5 mg/kg/injection, schedule: Q01DX009 (ip), vehicle: Klucel (hydroxypropylcellulose) (HPC)
[7] = dose: 25.0 mg/kg/injection, schedule: Q01DX009 (ip), vehicle: Klucel (hydroxypropylcellulose) (HPC)
[8] = dose: 50.0 mg/kg/injection, schedule: Q01DX009 (ip), vehicle: Klucel (hydroxypropylcellulose) (HPC)
[9] = dose: 400.0 mg/kg/injection, schedule: Q01DX009 (ip), vehicle: Klucel (hydroxypropylcellulose) (HPC)
[10] = dose: 12.5 mg/kg/injection, schedule: Q01DX009 (ip), vehicle: saline with Tween-80
[11] = dose: 25.0 mg/kg/injection, schedule: Q01DX009 (ip), vehicle: saline with Tween-80

Structure (SMILES): CC(C)CCCCCCCCCCCCC(=O)NCC(=O)NC1C(C)OC(Nc2ncnc3nc[nH]c23)C(O)C1O (stereo not drawn)
- T/C (dose: 0.25 mg/kg/injection, schedule: Q01DX008 (ip), vehicle: distilled water + Tween-80): 95 % of control
- T/C (dose: 0.25 mg/kg/injection, schedule: Q01DX009 (ip), vehicle: distilled water + Tween-80): 112 % of control
- T/C (dose: 0.5 mg/kg/injection, schedule: Q01DX008 (ip), vehicle: distilled water + Tween-80): 95 % of control
- T/C (dose: 0.5 mg/kg/injection, schedule: Q01DX009 (ip), vehicle: distilled water + Tween-80): 112 % of control
- T/C (dose: 1.0 mg/kg/injection, schedule: Q01DX008 (ip), vehicle: distilled water + Tween-80): 98 % of control
- T/C (dose: 2.0 mg/kg/injection, schedule: Q01DX008 (ip), vehicle: distilled water + Tween-80): 111 % of control

Structure (SMILES): COC(C(=O)C(O)C(C)O)C1CC2C=C3C=C(OC4CC(OC5CC(O)C(OC)C(C)O5)C(OC(C)=O)C(C)O4)C(C)C(=O)C3=C(O)C2=C(O)C1OC1CC(OC2CC(OC3CC(C)(O)C(OC(=O)C(C)C)C(C)O3)C(O)C(C)O2)C(O)C(C)O1 (stereo not drawn)
- T/C (dose: 62.5 micrograms/kg/injection, schedule: Q01DX009 (ip), vehicle: saline): 155 % of control

Structure (SMILES): COc1ccc2c(c1[N+](=O)[O-])CC[C@@H]1[C@@H]2CC[C@]2(C)C(=O)CC[C@@H]12
- T/C [1]: 94 % of control and 95 % of control
- T/C [2]: 91 % of control and 108 % of control
- T/C [3]: 90 % of control
- T/C [4]: 91 % of control
- T/C (dose: 800.0 mg/kg/injection, schedule: Q01DX009 (ip), vehicle: saline with Tween-80): 91 % of control

Structure (SMILES): COC1/C=C\C=C(/C)C(=O)NC2=CC(=O)C(NCCCl)=C(CC(C)CC(OC)C(O)C(C)/C=C(/C)C1OC(N)=O)C2=O (stereo not drawn)
- T/C (dose: 3.0 mg/kg/injection, schedule: Q01DX009 (ip), vehicle: DMSO): 109 % of control and 103 % of control
- T/C (dose: 6.0 mg/kg/injection, schedule: Q01DX009 (ip), vehicle: DMSO): 112 % of control and 106 % of control
- T/C (dose: 12.0 mg/kg/injection, schedule: Q01DX009 (ip), vehicle: DMSO): 112 % of control and 123 % of control
- T/C (dose: 24.0 mg/kg/injection, schedule: Q01DX009 (ip), vehicle: DMSO): 109 % of control and 120 % of control

Structure (SMILES): O=C(Nc1ccc([N+](=O)[O-])cc1)Nc1nncs1
- T/C (dose: 25.0 mg/kg/injection, schedule: Q01DX009 (ip), vehicle: distilled water + Tween-80): 122 % of control and 103 % of control
- T/C (dose: 50.0 mg/kg/injection, schedule: Q01DX009 (ip), vehicle: distilled water + Tween-80): 112 % of control and 113 % of control
- T/C (dose: 200.0 mg/kg/injection, schedule: Q01DX009 (ip), vehicle: distilled water + Tween-80): 120 % of control

Structure (SMILES): COC1=C(NC(C)=O)C(=O)c2nc(-c3nc(C(=O)O)c(C)c(-c4ccc(OC)c(OC)c4O)c3N)ccc2C1=O
- T/C [5]: 103 % of control
- T/C [6]: 95 % of control
- T/C [7]: 86 % of control
- T/C [8]: 97 % of control

Structure (SMILES): CSc1ncc2ncn(C3OC(CO)C(O)C3O)c2n1 (stereo not drawn)
- T/C [7]: 101 % of control and 105 % of control
- T/C [8]: 95 % of control and 98 % of control
- T/C (dose: 100.0 mg/kg/injection, schedule: Q01DX009 (ip), vehicle: Klucel (hydroxypropylcellulose) (HPC)): 103 % of control
- T/C (dose: 200.0 mg/kg/injection, schedule: Q01DX009 (ip), vehicle: Klucel (hydroxypropylcellulose) (HPC)): 106 % of control
- T/C [9]: 110 % of control and 89 % of control

Structure (SMILES): C=CCNC(=O)c1ccccc1SC(C)=O
- T/C (dose: 50.0 mg/kg/injection, schedule: Q01DX009 (ip), vehicle: saline + Tween-80 + alcohol): 101 % of control
- T/C (dose: 100.0 mg/kg/injection, schedule: Q01DX009 (ip), vehicle: saline + Tween-80 + alcohol): 112 % of control and 103 % of control
- T/C [2]: 91 % of control
- T/C (dose: 200.0 mg/kg/injection, schedule: Q01DX009 (ip), vehicle: saline + Tween-80 + alcohol): 119 % of control
- T/C [3]: 104 % of control
- T/C (dose: 400.0 mg/kg/injection, schedule: Q01DX009 (ip), vehicle: saline + Tween-80 + alcohol): 114 % of control
- T/C [4]: 116 % of control

Structure (SMILES): O=C(O)/C=C/C(=O)Nc1ccc(Cl)c(Cl)c1
- T/C [5]: 112 % of control
- T/C [9]: 110 % of control

Structure (SMILES): O=C(CN1CCOCC1)Nc1nc(-c2ccc(Cl)cc2)cs1
- T/C [10]: 105 % of control
- T/C [11]: 94 % of control
- T/C [1]: 96 % of control
- T/C [2]: 103 % of control
- T/C [3]: 98 % of control

Structure (SMILES): Cc1c(NS(=O)(=O)c2ccccc2)c(C)c(NS(=O)(=O)c2ccccc2)c(C)c1NS(=O)(=O)c1ccccc1
- T/C [10]: 97 % of control
- T/C [11]: 100 % of control
- T/C [1]: 94 % of control

Structure (SMILES): C=C1CCOC2(C(O)C(C)(O)CO)NC(=O)C1(O)NC2=O (stereo not drawn)
- T/C (dose: 50.0 mg/kg/injection, schedule: Q01DX009 (ip), vehicle: saline): 97 % of control
- T/C (dose: 100.0 mg/kg/injection, schedule: Q01DX009 (ip), vehicle: saline): 95 % of control
- T/C (dose: 200.0 mg/kg/injection, schedule: Q01DX009 (ip), vehicle: saline): 99 % of control

Structure (SMILES): CNC(=O)/C=C/C1=CN2C(=O)c3ccc(C)c(O)c3NC(OC)C2C1 (stereo not drawn)
- T/C (dose: 0.01 mg/kg/injection, schedule: Q01DX009 (ip), vehicle: saline): 109 % of control and 106 % of control
- T/C (dose: 0.02 mg/kg/injection, schedule: Q01DX009 (ip), vehicle: saline): 109 % of control
- T/C (dose: 0.03 mg/kg/injection, schedule: Q01DX009 (ip), vehicle: saline): 115 % of control
- T/C (dose: 0.05 mg/kg/injection, schedule: Q01DX009 (ip), vehicle: saline): 113 % of control and 116 % of control
- T/C (dose: 0.05 mg/kg/injection, schedule: Q01DX009 (ip), vehicle: suspension in saline): 98 % of control
- T/C (dose: 0.1 mg/kg/injection, schedule: Q01DX009 (ip), vehicle: saline): 117 % of control and 98 % of control
- T/C (dose: 0.1 mg/kg/injection, schedule: Q01DX009 (ip), vehicle: suspension in saline): 97 % of control
- T/C (dose: 0.2 mg/kg/injection, schedule: Q01DX009 (ip), vehicle: saline): 119 % of control

Structure (SMILES): CC(=O)OC1C(C)OC(OC(=O)C2CCC3C(C2)OC2(CC(OC(=O)/C=C/c4ccccc4)C(C)CO2)C32CO2)C(OC2OC(C)C(O)C(OC(C)=O)C2O)C1O (stereo not drawn)
- T/C (dose: 0.75 mg/kg/injection, schedule: Q01DX009 (ip), vehicle: saline + alcohol): 100 % of control
- T/C (dose: 1.5 mg/kg/injection, schedule: Q01DX009 (ip), vehicle: saline + alcohol): 99 % of control
- T/C (dose: 3.0 mg/kg/injection, schedule: Q01DX009 (ip), vehicle: saline + alcohol): 99 % of control
- T/C (dose: 4.0 mg/kg/injection, schedule: Q01DX009 (ip), vehicle: saline + Tween-80 + alcohol): 122 % of control
- T/C (dose: 16.0 mg/kg/injection, schedule: Q01DX009 (ip), vehicle: saline + Tween-80 + alcohol): 161 % of control
- T/C (dose: 32.0 mg/kg/injection, schedule: Q01DX009 (ip), vehicle: saline + Tween-80 + alcohol): 174 % of control
- T/C (dose: 64.0 mg/kg/injection, schedule: Q01DX009 (ip), vehicle: saline + Tween-80 + alcohol): 201 % of control

Structure (SMILES): CCCCCCCCCCCCCCCCS(=O)CC(O)COC(=O)c1ccc(C(=O)OCC(O)CS(=O)CCCCCCCCCCCCCCCC)cc1 (stereo not drawn)
- T/C (dose: 12.5 mg/kg/injection, schedule: Q01DX009 (ip), vehicle: saline + alcohol): 100 % of control
- T/C (dose: 25.0 mg/kg/injection, schedule: Q01DX009 (ip), vehicle: saline + alcohol): 86 % of control
- T/C (dose: 50.0 mg/kg/injection, schedule: Q01DX009 (ip), vehicle: saline + alcohol): 87 % of control

Structure (SMILES): O=C1CCCCCC2=NC12 (stereo not drawn)
- T/C [5]: 95 % of control
- T/C [6]: 91 % of control
- T/C [7]: 87 % of control
- T/C [8]: 98 % of control

Structure (SMILES): CNC[C@@H](O)c1ccc(O)c(O)c1
- T/C (dose: 0.75 mg/kg/injection, schedule: Q01DX009 (ip), vehicle: suspension in saline): 114 % of control
- T/C (dose: 1.5 mg/kg/injection, schedule: Q01DX009 (ip), vehicle: suspension in saline): 115 % of control
- T/C (dose: 3.0 mg/kg/injection, schedule: Q01DX009 (ip), vehicle: suspension in saline): 99 % of control
